Values of other authors as cited in US20220133691A1, “LASOFOXIFENE TREATMENT OF VVA AND OSTEOPOROSIS IN SURVIVORS OF BREAST CANCER AND OTHER MALIGNANCIES” (Sermonix Pharmaceuticals, Inc., priority 2016, published 2022).

System: post-menopausal women with osteoporosis
Details: PEARL trial

Oc1ccc2c(c1)CC[C@H](c1ccccc1)[C@@H]2c1ccc(OCCN2CCCC2)cc1 [lasofoxifene]
risk of osteoporosis (Cummings et al., NEJM 2010): reduce the risk of osteoporosis
risk of breast cancer (post-menopausal women with osteoporosis, LaCroix et al., JNCI 2010): reduced the risk of breast cancer
